What was measured:
LTD4 receptor = test: Inhibition of LTD4-induced IP3 formation in mesangial cells; format: cell-based, rat
Procedure: Mesangial Cell Culture: Rat mesangial cells were isolated and cultured as described previously (Harris, R. C., et al., J. Clin. Invest. 82:1028-1039(1988). Briefly, kidneys were exicesed from two young Sprague-Dawly rats under sterile conditions, and the cortices removed, minced, and washed several times in Hank's Balanced Salt Solution, containing 10 mM HEPES pH 7.4, amphotericin (0.25 μg/ml), and gentamicin (50 μg/ml). The tissue was then passed through consecutive sterilized stainless mesh filters with pore sizes of 212 μm, 150 μm, and then onto the final mesh of 75 μm. The isolated glomeruli were harvested from the surface of the 75 μm. The isolated glomeruli were harvested from the surface of the 75 μm filter and washed twisce with the Hank's Media. The glomeruli were suspended in RPMI 1640 Medium with 15% Fetal Bovine Serum (Givco), penicillin (100 μ/ml) and streptomycin (100 μg/ml) (Gibco), plated into 100 mm cell culture petri dishes, and incubated at 37° C. in a humidified atmosphere of 95% air and […] 5% CO2. Mesangial cell colonies were subcultured in 60 mm culture dishes, and experiments were carried out in cells from passages 2 to 12. The criteria used to establish the identify of mesangial cells were as described previously (Harris, R. C., et al., J. Clin. Invest. 82:1028-1039 (1988)). Cells were routinely grown in RPMI-1640, supplemented with 20% fetal calf serum, penicillin 100 μ/ml, and streptomycin 100 μg/ml. […] All eicosanoids were stored under argon at -70° C. in methanol and their purity and quantity verified periodically by ultraviolet scanning and high pressure liquid chromatography (Serhan, C. N. et al., J. Biol. Chem. 261:16340 (1986)).
(§1) To label mesangial cells with [^3 H]-Inositol, cells grown to confluence in 60 mm culture dishes (10^6 cells/dish) were cultured in RPMI, supplemented with 10% dialyzed fetal calf serum and [^3 H]-inositol (1 μCi/ml) in a total incubation volume of 5 ml.
Reactions were terminated by the addition of cold 10% trichloroacetic acid (TCA), the supernatants subjected to ether extraction, and the aqueous phase titrated to neutral pH using 0.1 M Tris base. [^3 H]-IP1, [^3 H]-IP2, and [^3 H]-IP3 in the aqueous phase were separated and quantitated by anion exchange column chromatography, using the method of Berridge et al. (Berridge, M. J., Biochem. J. 220:345-360 (1984)). To ensure the reliability of the separation technique, the same methods for extraction and separation were applied to known amounts of [^3 H]-IP1, [^3 H]IP2, and [^3 H]-IP3 standards (New England Nuclear) mixed in a ratio of 3:2:1, respectively, and subjected to separation by HPLC. The latter was performed using established methodology described previously (Cunha-Melo, J. R., et al., J. Biol. Chem. 262:11455-11463 (1987)).

[1] = Renal function in vivo in anesthetized rats (AP, Hct, RPF, GFR) during intrarenal arterial infusion; parameters: species or system male Munich-Wistar rats; conditions: for AP / GFR / Hct / RPF: LXA4 20-min infusion, n=3
Description: (§2) Statistical: ANOVA with Bonferroni modification for multiple pre-planned comparisons was used, within each group and between groups, to compare the changes in various whole kidney and microcirculatory indices which occurred from one period to another. In phosphoinositide generation studies, increases in [^3 H]-IP3 CPMs in agonist-treated cells were compared to vehicle-treated controls using upaired students t-test. Differences were considered significant at a p value ≤0.05. All values are reported as means ± SEM.
Inulin and para-aminohippurate (PAH) clearances Were used to measure GFR and effective RPF. A needle was placed at the take-off of the left renal artery through which a maintenance infusion of 0.9% NaCl at a rate of 0.05 ml/min was initiated. […] Two experimental groups
Group I (n=14). First period: Clearances were performed during vehicle infusion.
Group II (n=12). First period: Clearances were performed during vehicle infusion.

hamster cheek pouch = conditions: topical; cited from earlier work
vascular smooth muscle = conditions: cited from earlier work
rat mesangial cells = test: IP3 formation ([3H]-inositol labeled mesangial cells) in response to LTD4 or LXA4; format: cell-based; conditions: Mesangial cell, 5 s
Description: as §2
The isolated glomeruli were harvested from the surface of the 75 μm filter and washed twisce with the Hank's Media. […] Mesangial cell colonies were subcultured in 60 mm culture dishes, and experiments were carried out in cells from passages 2 to 12.
as §1
Reactions were terminated by the addition of cold 10% trichloroacetic acid (TCA), the supernatants subjected to ether extraction, and the aqueous phase titrated to neutral pH using 0.1 M Tris base. […] To ensure the reliability of the separation technique, the same methods for extraction and separation were applied to known amounts of [^3 H]-IP1, [^3 H]IP2, and [^3 H]-IP3 standards (New England Nuclear) mixed in a ratio of 3:2:1, respectively, and subjected to separation by HPLC.

neutrophils = conditions: cited from earlier work
renal arterioles = conditions: renal artery, anesthetized rats; cited from earlier work
[2] = test system: guinea pig ileum or trachea; conditions: cited from earlier work
guinea pig lung = conditions: cited from earlier work
[3] = Group II, third period, LTD4 in the presence of LXA4
[4] = LTD4 14.0 μg/kg/min + LXA4, p<0.05 vs baseline
[5] = LTD4 20.0 μg/kg/min + LXA4, p<0.05 vs baseline

CCCCC[C@H](O)/C=C/C=C\C=C\C=C\[C@@H](O)[C@@H](O)CCCC(=O)O [LXA4, (5S,6R,15S)-5,6,15-trihydroxy-7,9,13-trans-11-cis-eicosatetraenoic acid]
Inhibition of LTD4-induced IP3 generation (LTD4 receptor; pre-incubation with 100 nM LXA4 for 10 min, then 10 nM LTD4 (n=3)): completely prevented
Inhibition of LTD4-induced stimulation of IP3 formation (FIG. 2) (LTD4 receptor; preexposure to 100 nM LXA4 for 10 minutes): abrogation
GFR and RPF change (in words) ([1]; Group II, LXA4 infusion, period 2): moderate increases
AP ([1]; Group II, period 2, subgroup A): 121 ± 4 mmHg
GFR ([1]; Group II, period 2, subgroup A): 1.20 ± 0.20 mL/min
Hct ([1]; Group II, period 2, subgroup A): 43.7 ± 0.9 Vol./dl
RPF ([1]; Group II, period 2, subgroup A): 4.50 ± 0.08 mL/min
AP ([1]; Group II, period 2, subgroup B): 120 ± 0 mmHg
GFR ([1]; Group II, period 2, subgroup B): 0.98 ± 0.06 mL/min
Hct ([1]; Group II, period 2, subgroup B): 44.7 ± 1.2 Vol./dl
RPF ([1]; Group II, period 2, subgroup B): 4.76 ± 0.83 mL/min
AP ([1]; Group II, period 2, subgroup C): 127 ± 2 mmHg
GFR ([1]; Group II, period 2, subgroup C): 1.30 ± 0.10 mL/min
Hct ([1]; Group II, period 2, subgroup C): 45.2 ± 0.7 Vol./dl
RPF ([1]; Group II, period 2, subgroup C): 4.87 ± 0.10 mL/min
AP ([1]; Group II, period 2, subgroup D): 108 ± 3 mmHg
GFR ([1]; Group II, period 2, subgroup D): 1.27 ± 0.04 mL/min
Hct ([1]; Group II, period 2, subgroup D): 44.5 ± 0.3 Vol./dl
RPF ([1]; Group II, period 2, subgroup D): 4.58 ± 0.20 mL/min
Effect on LTD4-induced falls in RPF [1, 3]: without effect
Effect on LTD4-provoked reduction in GFR [1, 3]: marked blunting
Mean percent fall in GFR during LTD4 in the presence of LXA4 ([1]; LTD4 0.5 μg/kg/min + LXA4): 9%
Mean percent fall in RPF during LTD4 in the presence of LXA4 ([1]; LTD4 0.5 μg/kg/min + LXA4, p<0.05 vs baseline): 20%
Mean percent fall in GFR during LTD4 in the presence of LXA4 ([1]; LTD4 7.0 μg/kg/min + LXA4): 11%
Mean percent fall in RPF during LTD4 in the presence of LXA4 ([1]; LTD4 7.0 μg/kg/min + LXA4, p<0.05 vs baseline): 37%
Mean percent fall in GFR during LTD4 in the presence of LXA4 [1, 4]: 42%
Mean percent fall in RPF during LTD4 in the presence of LXA4 [1, 4]: 51%
Mean percent fall in GFR during LTD4 in the presence of LXA4 [1, 5]: 50%
Mean percent fall in RPF during LTD4 in the presence of LXA4 [1, 5]: 68%
Arteriolar dilation (hamster cheek pouch): pronounced arteriolar dilation
Venular diameters (hamster cheek pouch): does not change venular diameters
Concentration that relaxes (dilates) vascular smooth muscle (vascular smooth muscle): less than 1 μM
activation at 0.001 µM (rat mesangial cells; 1 nM, 5 sec, n=3, p<0.05, read-out: increase in [3H]-IP3 counts over controls): 46 ± 14%
activation at 0.01 µM (rat mesangial cells; 10 nM LXA4, 5 sec, n=6, p<0.05, read-out: increase in [3H]-IP3 counts over controls): 50 ± 21%
activation at 0.05 µM (rat mesangial cells; 50 nM LXA4, 5 sec, n=3, p<0.05, read-out: increase in [3H]-IP3 counts over controls): 44 ± 22%
activation at 0.1 µM (rat mesangial cells; 100 nM, 5 sec, n=5, p<0.05, read-out: increase in [3H]-IP3 counts over controls): 45 ± 26%
Neutrophil superoxide generation, elastase release and leukocyte chemotaxis (neutrophils): induce neutrophils to generate superoxide radicals, release elastase, and promote chemotaxis by leukocytes
Glomerular capillary ultrafiltration coefficient (Kf) (renal arterioles): reduces
Renal arteriole response (renal arterioles): elicits vasodilator responses
Contraction of ileum or trachea [2]: not guinea pig ileum or trachea
Contraction of pulmonary smooth muscle (guinea pig lung): contract pulmonary smooth muscle

Source: patent publication US5079261A, “Use of lipoxin A4 and its derivatives as antagonists for slow-reacting substances of anaphylaxis” (Brigham and Women's Hospital, priority 1989, dated 1992)
